B1: recombinant TNF: rTNFα (Peprotech; 315-01Am, 20 ng/mL) (protein)
chain: LRSSSQNSSDKPVAHVVANHQVEEQLEWLSQRANALLANGMDLKDNQLVVPADGLYLVYSQVLFKGQGCPDYVLLTHTVSRFAISYQEKVNLLSAVKSPCPKDTPEGAELKPWYEPIYLGGVFQLEKGDQLSAEVNLPKYLDFAESGQVYFGVIAL

Columns and labels:
Format in all cases: cell-based, mouse
[1] = tested on: IL-1β production by BMDCs co-cultured with TH0 cells; experiment: Co-culture of BMDCs and effector CD4+ T cells (CD3 Ab), secreted IL-1β by ELISA or immunoblot; details: WT BMDCs + WT TH0 cells, IETD 10 μM, 18 h
Protocol: Cell culture treated plates were coated with αCD3 (5 μg mL^−1) and αCD28 (5 μg mL^−1) for 3-4 h at 37° C. CD4^+CD62L^hi naïve CD4^+ T cells were isolated from splenocytes using a Mojosort naïve CD4 T cell isolation kit according to manufacturer's protocol. Purified naïve T cells were plated in antibody-coated plates with appropriate polarizing conditions for 5 days. T cell were cultured in complete RPMI supplemented with 10% FCS. Cytokine cocktails for in vitro polarization: Thl — IL-12 (10 ng mL^−1, peprotech), IL-2 (50 U mL^−1, peprotech), αIL-4 (10 μg mL^−1, Biolegend); Th17-IL-6 (20 ng mL^−1, peprotech), hTGFβ (5 ng mL^−1, peprotech), αIL-4 (10 μg mL^−1, Biolegend), αIFNγ (10 μg mL^−1, Biolegend), IL-23 (20 ng mL^−1, Biolegend) and IL-1β (20 ng mL^−1, peprotech), Th2− IL-4 (4 ng mL^−1, peprotech), IL-2 (50 U mL^−1, Biolegend), and αIFNγ (10 μg mL^−1, Biolegend), Th0− IL-2 (50 U mL^−1). For co-culture experiments T cells were rested in 10% RPMI supplemented with IL-2 (10 U mL^−1) for 36 hrs before co-culture.
Mouse progenitors were isolated from bone marrow (femurs and tibias). […]
Cells were lysed in 1× RIPA Buffer and protein was quantified using Pierce™ BCA Protein Assay Kit. […] Western blot was develop using SuperSignal™ West Pico PLUS Chemiluminescent Substrate (Thermo Fisher) and ECL signal was recorded on X-Ray Films using a developer (Kodak).

[2] = tested on: pro-IL-1β in BMDCs; experiment: Co-culture of BMDCs and effector CD4+ T cells, pro-IL-1β by immunoblot or flow cytometry; details: WT BMDCs + WT TH0 cells, CD3 Ab, IETD 10 μM, 18 h
Protocol: 1 million DCs were cultured with 4 million T cells in 12 well plate. DC-T cell interaction was triggered by adding either αCD3ε (αCD3, 200 ng mL^−1) or OVA323-339 as described in the legends. In experiments measuring secreted IL-1β, IL-1R antagonist (50 ng mL^−1) was added 1 hr prior to DC stimulation to block IL-1β consumption. Co-cultures were also pretreated with neutralizing antibodies and inhibitor wherever described. Co-culture experiments were performed in complete RPMI supplemented with 10% FCS. For Western blot analysis of the culture supernatant cells were cultured in 1% FCS containing complete RPMI.
Cells were lysed in 1× RIPA Buffer and protein was quantified using Pierce™ BCA Protein Assay Kit. Cell lysates where boiled in 1× Laemmli buffer at 95° C. for 10 mins. Cell lysates were separated by SDS-PAGE and transferred onto PVDF membranes. Blots were incubated with anti-IL1β [1:1000] (R&D AF-401-SP), anti-caspase8 [1:1000] […] Western blot was develop using SuperSignal™ West Pico PLUS Chemiluminescent Substrate (Thermo Fisher) and ECL signal was recorded on X-Ray Films using a developer (Kodak).
Cells were stained with relevant antibodies for 30 min on ice and washed. […] The stained cells were analyzed with BDLSRII or Novocyte (ACEA biosciences). For cytokine receptor staining, control refers to fluorescence minus one control. Data were analyzed with FlowJo 10 Software.

[3] = tested on: WT BMDCs; experiment: Stimulation of WT BMDCs with recombinant TNF, intracellular pro-IL-1β by flow cytometry; details: recombinant TNFα 20 ng/mL, 6 h
Protocol: Mouse progenitors were isolated from bone marrow (femurs and tibias). Following RBC lysis, cells were plated at 0.75×10^6 mL^−1 in BMDC media (5% FCS containing complete RPMI+1% rGMCSF (Biolegend, 100 ng mL^−1). Media was replaced on day 2 and day 4 and cells were harvested for experiments on day 5 by gently flushing each well. For sorting of BMDC subpopulations, total BMDC cells were stained with fluorescent antibodies and FACS sorted as shown (FIG. 5g) For retroviral transduction, following RBC lysis cells were plated at 10×10^6 mL^−1 in 2 mL of retroviral supernatant containing […] polybrene. Cells were spinfected at 2500 rpm, 32° C., for 90 minutes, then 3 mL of BMDC media was added to each well and cells were incubated overnight. The next morning, ˜70% of the media was removed from the wells and spinfection was repeated with fresh retroviral supernatant. On day 5 cells were harvested for experiments.
Cells were stained with relevant antibodies for 30 min on ice and washed. For intracellular staining, Foxp3 staining buffer set (eBioscience; 00-5523-00) was used according to manufacturer's protocol. The stained cells were analyzed with BDLSRII or Novocyte (ACEA biosciences). For cytokine receptor staining, control refers to fluorescence minus one control. Data were analyzed with FlowJo 10 Software.

Row | Molecule | mature IL-1β (p17) in the supernatant (immunoblot, FIG. 4d) [1] | production of pro-IL-1β in BMDCs (immunoblot, FIG. 4d) [2] | synthesis of pro-IL-1β in wild-type BMDCs (FIG. 2k) [3]
1 | IETD | loss of mature IL-1β | did not affect | 
2 | B1 |  |  | drove the synthesis

Source: patent publication US20220378907A1, “METHODS FOR TREATING DISEASES” (CHILDREN'S HOSPITAL MEDICAL CENTER, priority 2019, published 2022)
